In PubChem BioAssay (NCI) one finds GI50 and TGI data, which are given here for eight compounds.

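Exposure lasted 48 hours, with cells grown in 96-well plates and compounds tested at five concentrations. Here, GI50 denotes the concentration required for 50% inhibition of growth. TGI marks complete inhibition of growth.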

Some test systems named below: OVCAR-8 ovarian; OVCAR-5 ovarian; PC-3 prostate; MDA-MB-435; MDA-MB-231 breast; CCRF-CEM leukemia; EKVX NSCLC; M14 melanoma; SK-MEL-28 melanoma; LOX IMVI melanoma.
Holding throughout (test): NCI tumour cell line growth inhibition, 48 h

Consider `CN1CCN(Cc2ccc(NC(=O)c3cncc(C#Cc4cnc(N)cc4C#N)c3)cc2C(F)(F)F)CC1`, for which the GI50 with OVCAR-8 ovarian is 4.51 µM; in the test on OVCAR-5 ovarian, 2.76 µM; in the test with PC-3 prostate, 3.5 µM; in the test on MDA-MB-435, 1.98 µM; in the test with MDA-MB-231 breast, 1.15 µM; with CCRF-CEM leukemia it was 3.4 µM. Besides, the GI50 with EKVX NSCLC is 3.4 µM; with M14 melanoma, 0.623 µM; with SK-MEL-28 melanoma, 1.11 µM; in the test with LOX IMVI melanoma it was 0.601 µM. For the same compound, the TGI in the test with OVCAR-8 ovarian amounted to 19 µM; in the test with OVCAR-5 ovarian, 14.2 µM; in the test with PC-3 prostate it was 19 µM; with MDA-MB-435, 11.7 µM; in the test with MDA-MB-231 breast, 3.1 µM; in the test on CCRF-CEM leukemia it was 42.7 µM. For the same compound, the TGI with EKVX NSCLC came out at 14.7 µM; in the test with M14 melanoma, 3.86 µM; in the test on SK-MEL-28 melanoma, 9 µM; in the test with LOX IMVI melanoma, 1.99 µM.

`CCC(C)Oc1nc2c(c(=O)n(C)c(=O)n2C)n1C` (stereo not given): the GI50 with OVCAR-8 ovarian, with OVCAR-5 ovarian, in the test on PC-3 prostate, in the test on MDA-MB-435, with MDA-MB-231 breast and in the test on CCRF-CEM leukemia was greater than 100 µM each time. The GI50 in the test with EKVX NSCLC, in the test on M14 melanoma, in the test with SK-MEL-28 melanoma and with LOX IMVI melanoma was greater than 100 µM in each case. For the same compound, the TGI in the test on OVCAR-8 ovarian, in the test on OVCAR-5 ovarian, in the test with PC-3 prostate, in the test on MDA-MB-435, with MDA-MB-231 breast and with CCRF-CEM leukemia was greater than 100 µM throughout. In addition, the TGI in the test on EKVX NSCLC, in the test on M14 melanoma, in the test with SK-MEL-28 melanoma and in the test on LOX IMVI melanoma was greater than 100 µM in each case.

For the compound `CCCn1cnc2c(SCC(=O)O)nc(N)nc21`, the TGI with OVCAR-8 ovarian, in the test with OVCAR-5 ovarian, in the test on PC-3 prostate, in the test on MDA-MB-435, in the test with MDA-MB-231 breast and in the test with CCRF-CEM leukemia was greater than 100 µM each time. Moreover, the TGI in the test on EKVX NSCLC, with M14 melanoma, in the test with SK-MEL-28 melanoma and with LOX IMVI melanoma was greater than 100 µM throughout.

With `COC(=O)C12CC(NC(=O)c3csc([C@@H](C[C@H](C(C)C)N(C)C(=O)[C@@H](NC(=O)[C@H]4CCCCN4C)C4CC4)OC(C)=O)n3)(C1)C2`, the GI50 with OVCAR-8 ovarian is 0.0501 µM; with OVCAR-5 ovarian it was 0.135 µM; in the test with PC-3 prostate it was 0.0366 µM; in the test on MDA-MB-435 it was 0.00243 µM; with MDA-MB-231 breast, 0.0435 µM; in the test with CCRF-CEM leukemia, 0.00613 µM. The GI50 was 0.0696 µM in the test with EKVX NSCLC, 0.00988 µM with M14 melanoma, 0.148 µM with SK-MEL-28 melanoma and 0.0144 µM in the test on LOX IMVI melanoma. In addition, the TGI in the test with OVCAR-8 ovarian is greater than 16.7 µM; in the test with OVCAR-5 ovarian, greater than 16.7 µM; with PC-3 prostate, greater than 16.7 µM; with MDA-MB-435, 0.0197 µM; with MDA-MB-231 breast, greater than 16.7 µM; in the test on CCRF-CEM leukemia, greater than 8.79 µM. In addition, the TGI in the test with EKVX NSCLC was greater than 16.7 µM; in the test with M14 melanoma it was greater than 5.28 µM; in the test with SK-MEL-28 melanoma, greater than 16.7 µM; in the test with LOX IMVI melanoma, greater than 16.7 µM.

With `C[Si](C)(c1ccc(C(=O)O)cc1)c1ccc(C(=O)O)cc1`, the TGI in the test with OVCAR-8 ovarian, with OVCAR-5 ovarian, in the test on PC-3 prostate, in the test on MDA-MB-435, in the test on MDA-MB-231 breast and in the test with CCRF-CEM leukemia was greater than 100 µM each time. The TGI in the test with EKVX NSCLC, with M14 melanoma, in the test with SK-MEL-28 melanoma and with LOX IMVI melanoma was greater than 100 µM each time.

`CCc1ccccc1NC(=O)/C=C/c1ccccc1`: the TGI in the test with OVCAR-8 ovarian, in the test on OVCAR-5 ovarian, with PC-3 prostate, with MDA-MB-435, in the test on MDA-MB-231 breast and in the test on CCRF-CEM leukemia was greater than 100 µM throughout. The TGI in the test on EKVX NSCLC, with M14 melanoma, in the test on SK-MEL-28 melanoma and in the test on LOX IMVI melanoma was greater than 100 µM throughout.

Turning to `Cc1ccc2nc(-c3ccc(OCC(=O)N=Nc4c(O)[nH]c5ccccc45)cc3)[nH]c2c1`, the GI50 in the test with OVCAR-8 ovarian is 2.46 µM; in the test on OVCAR-5 ovarian, 19.1 µM; in the test on PC-3 prostate, 1.74 µM; in the test with MDA-MB-435, 1.95 µM; in the test with MDA-MB-231 breast, 1.83 µM; in the test on CCRF-CEM leukemia it was 1.93 µM. Besides, the GI50 is 28 µM with EKVX NSCLC, 5.43 µM in the test with M14 melanoma, 2.61 µM in the test on SK-MEL-28 melanoma and 1.83 µM with LOX IMVI melanoma. Besides, the TGI in the test with OVCAR-8 ovarian is 6.34 µM; with OVCAR-5 ovarian it was greater than 100 µM; in the test on PC-3 prostate, 3.65 µM; in the test with MDA-MB-435, 3.88 µM; in the test on MDA-MB-231 breast it was 3.93 µM; with CCRF-CEM leukemia it was 11.3 µM. Besides, the TGI in the test with EKVX NSCLC is greater than 100 µM; with M14 melanoma, greater than 100 µM; in the test with SK-MEL-28 melanoma, 7 µM; with LOX IMVI melanoma it was 3.52 µM.

For the compound `O=C(/C=C/c1ccc(C(F)(F)F)cc1)Nc1ccc(C=C2c3ccccc3C(=O)c3ccccc32)cc1`, the GI50 with OVCAR-8 ovarian was 15.4 µM; with OVCAR-5 ovarian, 43.6 µM; in the test with PC-3 prostate it was 1.84 µM; in the test with MDA-MB-435, 0.64 µM; with MDA-MB-231 breast it was 16 µM; in the test with CCRF-CEM leukemia, 3.4 µM. Moreover, the GI50 was 3.37 µM with EKVX NSCLC, 3.41 µM in the test with M14 melanoma, 7.38 µM in the test on SK-MEL-28 melanoma and 14.2 µM in the test with LOX IMVI melanoma. In addition, the TGI was greater than 100 µM in the test with OVCAR-8 ovarian; greater than 100 µM in the test with OVCAR-5 ovarian; greater than 100 µM with PC-3 prostate; 2.67 µM in the test on MDA-MB-435; greater than 100 µM in the test with MDA-MB-231 breast; greater than 100 µM in the test on CCRF-CEM leukemia. The TGI in the test with EKVX NSCLC is greater than 100 µM; in the test on M14 melanoma, 18.8 µM; in the test on SK-MEL-28 melanoma, greater than 100 µM; in the test with LOX IMVI melanoma, greater than 100 µM.
